Assay results taken from patent US10969389B2, “Method to monitor and quantify interphase nuclear envelope rupture events” (INSTITUT CURIE, priority 2016, dated 2021).

Test system: RPE1 cells
Assay: Cell death after passing a constriction in micro-channels, with DNA repair inhibited by ATMi
Format: cell-based
Settings: ATMi 10 μM
Procedure: Micro-channels were prepared as previously described (Heuzé M L et al, 2011, 769, pp. 415-434). Briefly, polydimethylsiloxane (PDMS) (GE Silicones) was used to prepare 7 μm wide and 5 μm high micro-channels with constrictions of varying lengths and widths from a self-made mold. For HeLa cells, larger channels of 12 μm width and 5 μm height were used because of their larger nuclei. Channels with constrictions were incubated with 15 μg/mL of fibronectin for 30 min then washed with PBS at least 3 times and finally incubated with medium (containing drugs if necessary) for at least 5 hours before adding cells. Not that the height inside constriction varied depending on the width: height was 2 μm for 1.5 μm wide constrictions, 3.5 μm for 2 μm wide constrictions, 4 μm for 3 μm and 4 μm wide constrictions, and 5 μm for 5 μm wide constrictions.
siRNA 5′-AAAGCAUGGACGAUCAGGAAG-3′ (SEQ ID NO: 6) was used to deplete CHMP3 (Jimenez Science 2014), SMARTpool for SUN1 and SUN2 (Dharmacon, GE LifeSciences), both 5′-GGUGGUGACGAUCUGGGCU-3′ (SEQ ID NO: 7); and 5′-[…]-3′(SEQ ID NO: 8) to target LMNA. Non-targeting siRNA (Dharmacon, GE Life Technologies) was used as the control. siRNA was transfected with Lipofectamine RNAiMAX (Invitrogen). Cells were transfected with 120 nM siRNA 48 h and again 24 h before the experiment.
For immunofluorescence, secondary antibodies anti-mouse-Alexa488 and anti-Goat-Alexa488 (Jackson ImmunoResearch Laboratories) were used. ATMi (KU-55933, TOCRIS) was used at 10 μM to inhibit DNA repair.
The inventors hypothesized that efficient resealing was responsible for the high survival rate of cells passing through constrictions. The inventors thus quantified the occurrence of cell death after passage through a single constriction in RPE1 cells either depleted for LMNA/C, or for CHMP3. As expected from previous work by others, the inventors found a dramatic increase in death in LMNA/C-depleted cells (FIG. 4A), even inside straight channels, but stronger when cells were passing constrictions where the NE ruptured for longer periods of time.
The inventors therefore hypothesized that the cell death observed upon migration through constrictions in LMNA/C-depleted cells could be caused by a defect in DNA repair combined with a high degree of DNA damage due to prolonged nuclear envelope opening. To test this hypothesis, the inventors inhibited DNA repair using an ATM inhibitor (ATMi, Fig S4E; 22), in control cells and in cells depleted for LMNA/C, or CHMP3.

O=c1cc(-c2cccc3c2Sc2ccccc2S3)oc(N2CCOCC2)c1 [ATMi, KU-55933]
level of cell death (CHMP3-depleted RPE1 cells migrating through constrictions): about 30%
level of cell death (CHMP3-depleted RPE1 cells that did not migrate through constrictions): no effect
level of cell death (LMNA/C-depleted RPE1 cells): further increased
level of cell death (control RPE1 cells): no effect
